Assay results: PMC8557866, “Novel Small Molecule Growth Inhibitor Affecting Bacterial Outer Membrane Reduces Extraintestinal Pathogenic Escherichia coli (ExPEC) Infection in Avian Model” (Microbiology Spectrum, 2021)
Values after ≈ are worked out from the molar mass of the structure shown.

Columns and labels:
[1] = tested on: APEC serotype O78; settings: for Mean APEC load, Heart / Mean APEC load, Kidney / Mean APEC load, Liver / Mean APEC load, Lung / Mean lesion score in Air sacs / Mean lesion score in Heart / Mean lesion score in Liver / Mean lesion score in Lung / Cumulative lesion score / Mortality reduction compared to PC group / % reduction in severity, Air sacs lesions / % reduction in severity, Heart lesions / % reduction in severity, Liver lesions / % reduction in severity, Lung lesions / log reduction in APEC load, Heart / log reduction in APEC load, Kidney / log reduction in APEC load, Liver / log reduction in APEC load, Lung: efficacy trial, oral; for Cumulative lesion score: PC 6.2; for Mortality reduction compared to PC group: PC mortality 58.3%; for % reduction in severity, Air sacs lesions / % reduction in severity, Heart lesions / % reduction in severity, Liver lesions / % reduction in severity, Lung lesions / log reduction in APEC load, Heart / log reduction in APEC load, Kidney / log reduction in APEC load, Liver / log reduction in APEC load, Lung: vs PC; for BWG (body weight gain): in vivo
Description: The efficacy of GIs was assessed using commercial broiler chickens (n = 6/group). […] GI compounds (ChemBridge, San Diego, CA) dissolved in dimethyl sulfoxide (DMSO) were administered orally using a syringe, twice a day, from day 4 (1 day before APEC infection) to day 8 (3 days postinfection [dpi]). The dose of each GI is described in Table S1. […] Chickens that were infected and vehicle-treated (positive control [PC]) and noninfected and nontreated (negative control [NC]) were included as controls. On day 5, chickens were infected subcutaneously (s.c.) with rifampin-resistant (Rif^r) APEC serotype O78 ([18]) (1 × 10^7 CFU/chicken). […] To prepare the APEC inoculum for infection, Rif^r APEC O78 (50 μg/ml rifampin) was grown to logarithmic phase in LB medium, washed twice with phosphate-buffered saline (PBS), and adjusted to an optical density at 600 nm (OD600) of 0.1 (5 × 10^7 CFU/ml). The clinical signs and mortality were recorded until 7 dpi. Chickens that died during this period were necropsied on the same day, lesions in internal organs (liver, heart, lung, and air sacs) were scored as described previously ([63], [71]), and the APEC loads were quantified in internal organs (liver, heart, lung, and kidney) by plating the tissue homogenates on MacConkey agar plates containing 50 μg/ml rifampin ([18]). At 7 dpi (day 12), all live birds were euthanized, lesions were scored, and the APEC loads in internal organs were quantified as described above. The body weight of chickens was measured before GI treatment (day 3) and at the day of necropsy (day 12).

[2] = tested on: APEC O78; set-up: method as in PMID 30333507; settings: cited from earlier work
[3] = tested on: APEC O78; experiment: Comparative efficacy of GI-7 and sulfadimethoxine, floor trial; assay type: in vivo, commercial broiler chickens; set-up: % reduction in severity, Liver lesions / % reduction in severity, Heart lesions / % reduction in severity, Lung lesions / % reduction in severity, Air sacs lesions: concentration or dose not given beside the values; Cumulative lesion score / Mean lesion score in Liver / Mean lesion score in Heart / Mean lesion score in Lung / Mean lesion score in Air sacs: scale not given here
Description: At day 13 (7 dpi), half of the chickens from each group, and at day 42 (slaughter age), 10 chickens from each group were necropsied and lesions and APEC loads were assessed as described above.

[4] = Pharmacokinetic study in plasma of chickens (LC-MS); assay type: in vivo; settings: plasma
Description: Details of the methods are included in the supplemental material. page 3: previously(3). […] The mixtures were then incubated at […] for 30 min and proteins were removed by ultracentrifugation at 13,000xg for 25 min at 2 °C.

[5] = Quantification of residue in chicken tissues (LC-MS); assay type: in vivo, chickens
Source text: Chickens (n = 5/time point) from an experimental set-up as described above for the floor trial were sacrificed at 2 days (day 13; 2 DPLT), 5 days (day 16; 5 DPLT), and 31 days (day 42; 31 DPLT) post-last treatment. […] Tissue samples from chickens treated with SDM were used for comparison. […] Details of the methods are included in the supplemental material.

[6] = comparative efficacy trial, vs PC
[7] = comparative efficacy, GI-7 60 mg/liter, SDM 495.3 mg/liter, 7 dpi

CC1CCCN(CCC(=O)c2ccc(Br)cc2)C1 (centres unmarked) [GI-1]
Mean APEC load, Heart [1]: 6.8 Log CFU/g tissues | Mean APEC load, Kidney [1]: 6.6 Log CFU/g tissues | Mean APEC load, Liver [1]: 6.7 Log CFU/g tissues | Mean APEC load, Lung [1]: 6.4 Log CFU/g tissues | Mean lesion score in Air sacs [1]: 1.5 | Mean lesion score in Heart [1]: 2.0 | Mean lesion score in Liver [1]: 2.0 | Mean lesion score in Lung [1]: 0.7 | Cumulative lesion score [1]: 6.2 | Mortality reduction compared to PC group [1]: 8.3% | % reduction in severity, Air sacs lesions [1]: −5.9% | % reduction in severity, Heart lesions [1]: 4% | % reduction in severity, Liver lesions [1]: −20% | % reduction in severity, Lung lesions [1]: 33.3% | log reduction in APEC load, Heart [1]: -1.8 Log CFU/g tissues | log reduction in APEC load, Kidney [1]: -1.1 Log CFU/g tissues | log reduction in APEC load, Liver [1]: -2.0 Log CFU/g tissues | log reduction in APEC load, Lung [1]: -1.4 Log CFU/g tissues | BWG (body weight gain) [1]: 165.6±69.2 | MIC [2]: 200 µM (≈ 62 µg/mL)

COc1cc(CNCCc2ccc3ccccc3c2)ccc1OCC(O)CN1CCCC1 (centres unmarked) [GI-2]
Mean APEC load, Heart [1]: 4.1 Log CFU/g tissues | Mean APEC load, Kidney [1]: 3.8 Log CFU/g tissues | Mean APEC load, Liver [1]: 3.4 Log CFU/g tissues | Mean APEC load, Lung [1]: 3.5 Log CFU/g tissues | Mean lesion score in Air sacs [1]: 1.2 | Mean lesion score in Heart [1]: 1.8 | Mean lesion score in Liver [1]: 1.7 | Mean lesion score in Lung [1]: 0.7 | Cumulative lesion score [1]: 5.3 | Mortality reduction compared to PC group [1]: 25% | % reduction in severity, Air sacs lesions [1]: 17.7% | % reduction in severity, Heart lesions [1]: 12% | % reduction in severity, Liver lesions [1]: 0% | % reduction in severity, Lung lesions [1]: 33.3% | log reduction in APEC load, Heart [1]: 0.8 Log CFU/g tissues | log reduction in APEC load, Kidney [1]: 1.7 Log CFU/g tissues | log reduction in APEC load, Liver [1]: 0.9 Log CFU/g tissues | log reduction in APEC load, Lung [1]: 1.1 Log CFU/g tissues | BWG (body weight gain) [1]: 125.5±34.7 | MIC [2]: 100 µM (≈ 43.5 µg/mL)

COc1cc(CNCCc2ccc(C)cc2)ccc1OCC(O)CN1CCCC1 (centres unmarked) [GI-3]
Mean APEC load, Heart [1]: 7.0 Log CFU/g tissues | Mean APEC load, Kidney [1]: 6.9 Log CFU/g tissues | Mean APEC load, Liver [1]: 6.5 Log CFU/g tissues | Mean APEC load, Lung [1]: 7.0 Log CFU/g tissues | Mean lesion score in Air sacs [1]: 1.8 | Mean lesion score in Heart [1]: 2 | Mean lesion score in Liver [1]: 2 | Mean lesion score in Lung [1]: 1 | Cumulative lesion score [1]: 6.8 | % reduction in severity, Air sacs lesions [1]: −29.4% | % reduction in severity, Heart lesions [1]: 4% | % reduction in severity, Liver lesions [1]: −20% | % reduction in severity, Lung lesions [1]: 0% | log reduction in APEC load, Heart [1]: -2.1 Log CFU/g tissues | log reduction in APEC load, Kidney [1]: -1.4 Log CFU/g tissues | log reduction in APEC load, Liver [1]: -1.8 Log CFU/g tissues | log reduction in APEC load, Lung [1]: -2.0 Log CFU/g tissues | BWG (body weight gain) [1]: 254.6±95 | MIC [2]: 100 µM (≈ 39.9 µg/mL)

CCN1/C(=C/c2ccc3ccccc3[n+]2CC)C=Cc2ccccc21 [GI-9]
Mean APEC load, Heart [1]: 5.9 Log CFU/g tissues | Mean APEC load, Kidney [1]: 5.7 Log CFU/g tissues | Mean APEC load, Liver [1]: 4.7 Log CFU/g tissues | Mean APEC load, Lung [1]: 5.6 Log CFU/g tissues | Mean lesion score in Air sacs [1]: 2.7 | Mean lesion score in Heart [1]: 3.3 | Mean lesion score in Liver [1]: 2.5 | Cumulative lesion score [1]: 9.7 | Mortality reduction compared to PC group [1]: 25% | % reduction in severity, Air sacs lesions [1]: −88.2% | % reduction in severity, Heart lesions [1]: −60% | % reduction in severity, Liver lesions [1]: −50% | log reduction in APEC load, Heart [1]: -0.5 Log CFU/g tissues | log reduction in APEC load, Kidney [1]: -0.2 Log CFU/g tissues | log reduction in APEC load, Liver [1]: -0.1 Log CFU/g tissues | log reduction in APEC load, Lung [1]: -0.9 Log CFU/g tissues | BWG (body weight gain) [1]: 214.9±31.9 | MIC [2]: 25 µM

COc1cc(NS(=O)(=O)c2ccc(N)cc2)nc(OC)n1 [SDM, sulfadimethoxine, reference compound]
Mortality reduction compared to PC group ([3]; GI-7 60 mg/liter, SDM 495.3 mg/liter in drinking water, PC mortality 41.2%): 11.9% | Mean APEC load, Heart ([3]; comparative efficacy trial): 5.6 Log CFU/g tissues | Mean APEC load, Kidney ([3]; comparative efficacy trial): 5.5 Log CFU/g tissues | Mean APEC load, Liver ([3]; comparative efficacy trial): 5.0 Log CFU/g tissues | Mean APEC load, Lung ([3]; comparative efficacy trial): 6.2 Log CFU/g tissues | log reduction in APEC load, Heart [3, 6]: 2.3 Log CFU/g tissues | log reduction in APEC load, Kidney [3, 6]: 2.2 Log CFU/g tissues | log reduction in APEC load, Liver [3, 6]: 2.5 Log CFU/g tissues | log reduction in APEC load, Lung [3, 6]: 1.9 Log CFU/g tissues | Cumulative lesion score ([3]; comparative efficacy, 7 dpi): 8.5 | Mean lesion score in Air sacs [3, 7]: 2.5 | Mean lesion score in Heart [3, 7]: 2.8 | Mean lesion score in Liver [3, 7]: 2.0 | Mean lesion score in Lung [3, 7]: 1.2 | % reduction in severity, Air sacs lesions ([3]; comparative efficacy, vs PC): 25.7% | % reduction in severity, Heart lesions ([3]; comparative efficacy, vs PC): 20.8% | % reduction in severity, Liver lesions ([3]; comparative efficacy, vs PC): 19.2% | % reduction in severity, Lung lesions ([3]; comparative efficacy, vs PC): 36.9% | Survival of chickens ([3]; floor trial, P < 0.1): increased the survival | Overall BWG ([3]; in vivo): 2,408.1 g | Overall FCR ([3]; in vivo): 1.49 | Cmax ([4]; commercial broiler, po, mean ± standard deviation, read-out: Peak plasma concentration (Cmax)): 994 ± 167 ng/mL | Tmax ([4]; commercial broiler, po, postadministration, read-out: Time to maximum concentration (Tmax)): 24 h | Absorption (time at which absorbed) ([4]; drinking water delivery): 2 h | Residue concentration in muscle ([5]; 2 DPLT): 0.2 ± 0.1 ppm/g tissue | Residue level in kidney ([5]; 2 DPLT): 1.0 ± 0.2 ppm/g tissue | Residue level in liver ([5]; 2 DPLT): 0.2 ± 0.04 ppm/g tissue | Residue concentration in muscle ([5]; 5 DPLT): 0.02 ± 0.02 ppm/g tissue | Residue level in kidney ([5]; 5 DPLT): 1 ± 0.1 ppm/g tissue | Residue level in liver ([5]; 5 DPLT): 0.04 ± 0.02 ppm/g tissue | Residue concentration in muscle ([5]; 31 DPLT): 0.0 ± 0.0 ppm/g tissue | Residue level in kidney ([5]; 31 DPLT): 0.0 ± 0.0 ppm/g tissue | Residue level in liver ([5]; 31 DPLT): 0.0 ± 0.0 ppm/g tissue
